Test results reported in patent US20260347372A1, “SMALL MOLECULE INHIBITORS OF KRAS G12D MUTANT” (MERCK SHARP & DOHME LLC, priority 2023, published 2026).

Experiments:
KRAS G12D = KRAS G12D (Homo sapiens, UniProt P01116, G12D); assay: SOS-catalyzed nucleotide exchange assay, KRAS G12D (Procedure A); assay type: biochemical; settings: guanine nucleotide exchange (GNE)
Excerpt: (§1) Procedure for SOS-Catalyzed Nucleotide Exchange Assay for KRAS-WT, G12C/D/V, G13D, HRAS, and NRAS (Procedure A)
(§2) Recombinant KRAS-G12C protein used in this assay has an additional triple mutation (C51S/C80L/C118S). Whereas KRAS-WT, G12D/V, G13D, HRAS and NRAS are in context of their WT protein sequence background. Specifically, the SOS-catalyzed nucleotide exchange assay utilizes a preformed TR-FRET complex containing a specific biotinylated RAS protein (KRAS-WT, G12C/V/D, G13D, HRAS, NRAS; described above) with Bodipy-GDP, and Terbium-streptavidin. Compounds are preincubated with this complex for 60 minutes. Subsequently, recombinant human SOS protein and unlabeled GTP are added to initiate the exchange reaction. Small molecule inhibitors stabilize the Bodipy-GDP complex whereas the untreated protein rapidly exchanges Bodipy-GDP for unlabeled GTP resulting in reduced TR-FRET signal.
(§3) To assemble the preformed TR-FRET complexes, each biotinylated RAS protein is diluted to 2 μM in an EDTA Buffer (20 mM HEPES pH 7.5, 50 mM sodium chloride, 10 mM EDTA, and 0.01% Tween) and incubated at room temperature for one hour. This mixture is then further diluted to 90 nM in an Assay Buffer (20 mM HEPES pH 7.5, 150 mM sodium chloride, 10 mM magnesium chloride, and 0.005% Tween) containing 15 nM of Terbium-Streptavidin (Invitrogen, catalog #PV3577) and 900 nM of Bodipy-GDP (Invitrogen, catalog #G22360) and incubated at room temperature for six hours. It should be noted that this preformed TR-FRET complex for each of the RAS protein were made ahead of time, aliquoted and stored at −80° C. until the day of the experiment.
(§4) Each test compound (10 mM stock in DMSO) is diluted in DMSO to make a final-10-point, 3-fold dilution and is acoustically dispensed into a 384-well assay plate (Corning, catalog #3820) using an Echo 550 (Labcyte). Each well of the assay plate receives 3 μL of a specific 3×RAS preformed TR-FRET complex and 3 μL of Assay Buffer and is incubated at room temperature for 60 minutes (preincubation time). Each well then receives 3 μL of 3× recombinant human SOS protein and GTP (Sigma, G8877) in Assay Buffer and is incubated at room temperature for 30 minutes (G13D), 60 minutes (KRAS WT/G12C/D, H/NRAS) or 90 minutes for G12V. The final reaction in each well of 9 μL consists of 3 mM GTP, specific Ras and SOS proteins in the following concentrations: KRAS-G12C/SOS=3 nM/40 nM, KRAS-WT and G12D/SOS=1 nM/40 nM, KRAS-G12V/SOS=1.25 nM/160 nM, KRAS-G13D/SOS=1.25 nM/0 nM, HRAS and NRAS=1.25 nM/40 nM.
(§5) The time-resolved fluorescence resonance energy transfer (TR-FRET) signal is measured on an Envision (PerkinElmer) plate reader: Excitation filter=340 nm; emission1=495 nm; emission2=520 nm; dichroic mirror=D400/D505; delay time=[…]. The signal of each well is determined as the ratio of the emission at 520 nm to that at 495 nm. Percent effect of each well is determined after normalization to control wells containing DMSO (no effect) or a saturating concentration of inhibitor (max effect). The apparent effect as a function of compound concentration is fit to a four-parameter logistic equation.
(§6) For Example No. 14, nucleotide exchange assays for KRAS G12D, WT, G12C, and G12V were performed according to Procedure B. All the other compounds were tested according to Procedure A.

KRAS WT = KRAS WT (Homo sapiens, UniProt P01116); assay: SOS-catalyzed nucleotide exchange assay, KRAS WT (Procedure A); assay type: biochemical; settings: GNE
Chain of KRAS WT (P01116 with tags, fused parts or gaps isoform P01116-2): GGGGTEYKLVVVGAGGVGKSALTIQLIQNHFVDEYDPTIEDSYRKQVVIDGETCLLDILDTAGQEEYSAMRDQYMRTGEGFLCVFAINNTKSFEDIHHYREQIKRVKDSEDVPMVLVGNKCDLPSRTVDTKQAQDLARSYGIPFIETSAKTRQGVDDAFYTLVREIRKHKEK
Excerpt: as §1, §2, §3, §4, §5, §6

KRAS G12V = KRAS G12V (Homo sapiens, UniProt P01116, G12V); assay: SOS-catalyzed nucleotide exchange assay, KRAS G12V (Procedure A); assay type: biochemical; settings: GNE
Chain of KRAS G12V (P01116 with tags, fused parts or gaps isoform P01116-2 G12V): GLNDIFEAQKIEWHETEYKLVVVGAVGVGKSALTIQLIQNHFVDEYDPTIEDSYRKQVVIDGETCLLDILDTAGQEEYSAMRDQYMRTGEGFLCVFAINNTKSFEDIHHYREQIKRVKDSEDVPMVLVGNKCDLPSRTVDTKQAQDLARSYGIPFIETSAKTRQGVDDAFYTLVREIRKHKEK
Excerpt: as §1, §2, §3, §4, §5, §6

AsPC-1 cells = target: T1, AsPC-1 cells (Homo sapiens, UniProt P01116, G12D); assay: Cellular phospho-ERK assay, AsPC-1 cells (KRAS G12D); assay type: cell-based; settings: 2 hours, read-out: AsPC1 pERK IC50
T1 construct: p-ERK/total ERK AlphaSureFire read-out
T1 sequence (P01116 1-188 isoform P01116-2 G12D): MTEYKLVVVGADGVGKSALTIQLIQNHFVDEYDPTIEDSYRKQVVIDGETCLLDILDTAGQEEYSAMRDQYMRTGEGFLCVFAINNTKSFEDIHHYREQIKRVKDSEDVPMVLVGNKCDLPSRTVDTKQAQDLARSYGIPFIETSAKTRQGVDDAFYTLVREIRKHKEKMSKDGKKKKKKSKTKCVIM
Method: Procedure for Cellular Phospho-ERK Assay in KRAS Wild Type and Mutant (G12D, G12V) Cell Lines
PANC08.13 cells (ATCC® CRL-2551™), containing homozygous KRAS-G12D activating mutation, were cultured in growth medium made of RPMI1640-GlutaMAX™-I (ThermoFisher Scientific 61870) containing 15% heat inactivated fetal bovine serum (ThermoFisher Scientific 10091148)). AsPC-1 cells (ATCC® CRL-1682™), containing homozygous KRAS-G12D activating mutation, were cultured in T150 flask in growth medium (RPMI medium 1640-GlutaMAX™-I (ThermoFisher Scientific 61870) containing 10% fetal bovine serum (ThermoFisher Scientific 10091148)).
Cells for the assay were harvested in growth medium after TrypLE (ThermoFisher scientific 12604021) digestion and were seeded in a 384-well collagen coated cell culture plate (Corning 356702) at a density of 10,000-15,000 cells/20 μL/well, and incubated at 37° C., 5% CO2 overnight. The compound (with 10 mM stock concentration) dose-response titrations were prepared [30 μM final ERK detection assay concentration and 1:3 dilutions, 10-point dose response] and appropriate amounts (270 nL) of test compounds were dispensed in a 384-well intermediate plate using an Echo 550 liquid handler. 30 μL/well of RPMI medium 1640-GlutaMAX™-I was added to the intermediate plate and the contents of the intermediate plate (10 μL/well) were then transferred to the 384-well collagen coated cell culture plate, which was incubated at 37° C., 5% CO2 for 2 hours. After removal of medium from the collagen coated cell culture plate, cells were lysed in lysis buffer from Alpha SureFire® Ultra™ Multiplex p-ERK and total ERK assay kit (PerkinElmer MPSU-PTERK) containing Halt™ Protease and Phosphatase inhibitor cocktail (ThermoFisher Scientific 78446) at room temperature with constant shaking at 300 rpm for 30 minutes. The cell lysates were then transferred to an OptiPlate-384 plate (PerkinElmer 6005620), and the phosphorylation of ERK (p-ERK) and total ERK levels were detected by Alpha SureFire® Ultra™ Multiplex p-EEK kit and total ERK assay kit (PerkinElmer MPSU-PTERK) following the manufacturer's protocol. Assay plates were read on a EnVision Multimode Plate Reader (PerkinElmer), and the ratio of p-ERK vs. total ERK in each well was used as the final readout. Dose response curves were analyzed using a 4-parameter logistic model to calculate IC50 values using Spotfire software.

Chain of KRAS G12D (P01116 with tags, fused parts or gaps isoform P01116-2 G12D): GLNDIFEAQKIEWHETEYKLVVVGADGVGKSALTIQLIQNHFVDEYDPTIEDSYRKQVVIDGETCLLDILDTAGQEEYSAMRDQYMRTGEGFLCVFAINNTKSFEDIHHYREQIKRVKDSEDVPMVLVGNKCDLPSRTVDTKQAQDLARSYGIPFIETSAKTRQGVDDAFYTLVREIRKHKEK

`COC1(COc2nc(N3C[C@H]4CC[C@@H](C3)N4)c3c(n2)sc2c(-c4c(C(F)(F)F)c(C)cc5[nH]ncc45)nccc23)CC1` [Ex-26, 4-((1R,5S)-3,8-diazabicyclo[3.2.1]octan-3-yl)-2-((1-methoxycyclopropyl)methoxy)-8-(6-methyl-5-(trifluoromethyl)-1H-indazol-4-yl)pyrido[4′,3′:4,5]thieno[2,3-d]pyrimidine] was tested, and the IC50 (KRAS G12D) was 3.2 µM, the IC50 (KRAS WT) was > 11.1 µM and the IC50 (KRAS G12V) was > 11.1 µM. The IC50 (AsPC-1 cells) was > 30 µM.
With `Cc1cc2[nH]ncc2c(-c2nccc3c2sc2nc(OCC4CS(=O)(=O)C4)nc(N4C[C@H]5CC[C@@H](C4)N5)c23)c1C(F)(F)F` [Ex-27, 3-(((4-((1R,5S)-3,8-diazabicyclo[3.2.1]octan-3-yl)-8-(6-methy1-5-(trifluoromethyl)-1H-indazol-4-yl)pyrido[4′,3′:4,5]thieno[2,3-d]pyrimidin-2-yl)oxy)methyl)thietane 1,1-dioxide] the IC50 (KRAS G12D) was 3.59 µM, the IC50 (KRAS WT) was > 11.1 µM and the IC50 (KRAS G12V) was > 11.1 µM. For the same compound, the IC50 (AsPC-1 cells) was 5.73 µM.
In the case of `Cc1cc2[nH]ncc2c(-c2nccc3c2sc2nc(OCC45COC(CF)(C4)C5)nc(N4C[C@H]5CC[C@@H](C4)N5)c23)c1C(F)(F)F` [Ex-28, 4-((1R,5S)-3,8-diazabicyclo[3.2.1]octan-3-yl)-2-((1-(fluoromethyl)-2-oxabicyclo[2.1.1]hexan-4-yl)methoxy)-8-(6-methy1-5-(trifluoromethyl)-1H-indazol-4-yl)pyrido[4′,3′:4,5]thieno[2,3-d]pyrimidine], the IC50 (KRAS G12D) is reported as 3.34 µM, the IC50 (KRAS WT) is reported as > 11.1 µM and the IC50 (KRAS G12V) is reported as > 11.1 µM. For the same compound, the IC50 (AsPC-1 cells) was > 30 µM.
For `Cc1cc2[nH]ncc2c(-c2nccc3c2sc2nc(OC[C@H]4C[C@H](S(C)(=O)=O)C4)nc(N4C[C@H]5CC[C@@H](C4)N5)c23)c1C(F)(F)F` [Ex-29, 4-((1R,5S)-3,8-diazabicyclo[3.2.1]octan-3-yl)-8-(6-methyl-5-(trifluoromethyl)-1H-indazol-4-yl)-2-(((1r,3R)-3-(methylsulfonyl)cyclobutyl)meth-oxy)pyrido[4′,3′:4,5] thieno[2,3-d]pyrimidine], the IC50 (KRAS G12D) was 2.48 µM, the IC50 (KRAS WT) was > 11.1 µM and the IC50 (KRAS G12V) was > 11.1 µM. For the same compound, the IC50 (AsPC-1 cells) was > 30 µM.
For `Cc1cc2[nH]ncc2c(-c2nccc3c2sc2nc(OCC4CCS(=O)(=O)C4)nc(N4C[C@H]5CC[C@@H](C4)N5)c23)c1C(F)(F)F` (stereo partly drawn) [Ex-30, 3-(((4-((1R,5S)-3,8-diazabicyclo[3.2.1]octan-3-yl)-8-(6-methyl-5-(trifluoromethyl)-1H-indazol-4-yl)pyrido[4′,3′:4,5]thieno[2,3-d]pyrimidin-2-yl)oxy)methyl)tetrahydrothio-phene 1,1-dioxide], the IC50 (KRAS G12D) was 2.6 µM, the IC50 (KRAS WT) was > 11.1 µM and the IC50 (KRAS G12V) was > 11.1 µM. The IC50 (AsPC-1 cells) was > 30 µM.
In the case of `Cc1cc2[nH]ncc2c(-c2nccc3c2sc2nc(OCC4CCS4(=O)=O)nc(N4C[C@H]5CC[C@@H](C4)N5)c23)c1C(F)(F)F` (stereo partly drawn) [Ex-31, 2-(((4-((1R,5S)-3,8-diazabicyclo[3.2.1]octan-3-yl)-8-(6-methyl-5-(trifluoromethyl)-1H-indazol-4-yl)pyrido[4′,3′:4,5]thieno[2,3-d]pyrimidin-2-yl)oxy)methyl)thietane 1,1-dioxide], the IC50 (KRAS G12D) is reported as 7.79 µM, the IC50 (KRAS WT) is reported as > 11.1 µM and the IC50 (KRAS G12V) is reported as > 11.1 µM. The IC50 (AsPC-1 cells) was > 30 µM.
In the case of `Cc1cc2[nH]ncc2c(-c2nccc3c2sc2nc(OCCN4CCOC4=O)nc(N4C[C@H]5CC[C@@H](C4)N5)c23)c1C(F)(F)F` [Ex-40, 3-(2-((4-((1R,5S)-3,8-diazabicyclo[3.2.1]octan-3-yl)-8-(6-methyl-5-(trifluoromethyl)-1H-indazol-4-yl)pyrido[4′,3′:4,5]thieno[2,3-d]pyrimidin-2-yl)oxy)ethyl)oxazolidin-2-one], the IC50 (KRAS G12D) is reported as 5.88 µM, the IC50 (KRAS WT) is reported as > 11.1 µM and the IC50 (KRAS G12V) is reported as > 11.1 µM. The IC50 (AsPC-1 cells) was > 30 µM.
`C#Cc1c(F)ccc2cc3[nH]ncc3c(-c3nccc4c3sc3nc(OC[C@@]56CCCN5C[C@H](F)C6)nc(N5C[C@H]6CC[C@@H](C5)N6)c34)c12` [Ex-56] was tested, and the IC50 (KRAS G12D) was 0.00445 µM, the IC50 (KRAS WT) was 0.225 µM and the IC50 (KRAS G12V) was 0.283 µM. For the same compound, the IC50 (AsPC-1 cells) was 0.0318 µM.
Compound `Fc1ccc2cc3[nH]ncc3c(-c3nccc4c3sc3nc(OC[C@@]56CCCN5C[C@H](F)C6)nc(N5C[C@H]6CC[C@@H](C5)N6)c34)c2c1` [Ex-57, 4-((1R,5S)-3,8-diazabicyclo[3.2.1]octan-3-yl)-8-(6-fluoro-1H-benzo[f]indazol-4-yl)-2-(((2R,7aS)-2-fluorotetrahydro-1H-pyrrolizin-7a(5H)-yl)methoxy)pyri-do[4′,3′:4,5] thieno[2,3-d]pyrimidine] has an IC50 (KRAS G12D) of 0.0236 µM, an IC50 (KRAS WT) of 2.89 µM and an IC50 (KRAS G12V) of 2.09 µM. For the same compound, the IC50 (AsPC-1 cells) was 0.299 µM.
Work on `F[C@H]1CN2CCC[C@@]2(COc2nc(N3C[C@H]4CC[C@@H](C3)N4)c3c(n2)sc2c(-c4c5cn[nH]c5cc5cccc(Cl)c45)nccc23)C1` [Ex-58, 4-((1R,5S)-3,8-diazabicyclo[3.2.1]octan-3-yl)-8-(5-chloro-1H-benzo[/]indazol-4-yl)-2-(((2R,7aS)-2-fluorotetrahydro-1H-pyrrolizin-7a(5H)-yl)methoxy)pyrido[4′,3′:4,5]thieno[2,3-d]pyrimidine] yielded an IC50 (KRAS G12D) of 0.0093 µM, an IC50 (KRAS WT) of 1.83 µM and an IC50 (KRAS G12V) of 2.56 µM. The IC50 (AsPC-1 cells) was 0.447 µM.
`Cc1cc2[nH]ncc2c(-c2nccc3c2sc2nc(OC[C@@]45CCCN4C[C@H](F)C5)nc(N4C[C@@H]5CC[C@H]4CN5)c23)c1C(F)(F)F` [Ex-75, 4-((1S,4S)-2,5-diazabicyclo[2.2.2]octan-2-yl)-2-(((2R,7aS)-2-fluorotetrahydro-1H-pyrrolizin-7a(5H)-yl)methoxy)-8-(6-methyl-5-(trifluoromethyl)-1H-indazol-4-yl)pyrido[4′,3′:4,5]thieno[2,3-d]pyrimidine] was tested, and the IC50 (KRAS G12D) was 0.0381 µM, the IC50 (KRAS WT) was 3.68 µM and the IC50 (KRAS G12V) was > 11.1 µM. For the same compound, the IC50 (AsPC-1 cells) was 0.629 µM.
